In patent publication US8183252B2, “Heterocyclic aspartyl protease inhibitors” (Schering Corporation, priority 2007, dated 2012):
Like-named read-outs stand apart in the source and are kept apart here.

Target: T1, human BACE1 (sproBACE1) (Homo sapiens, UniProt P56817)
T1 construct: sBACE1, corresponding to amino acids 1-454; made in house; host or cells: Sf9 insect cells (baculovirus), secreted into the medium
Test: BACE-1 Peptide Hydrolysis Assay (HTRF)
Format: biochemical
In short: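 Secreted sBACE1-myc/His from baculovirus-infected sf9 cells, purified on Q-sepharose then Ni-NTA. Substrate-initiated reactions ran 3 hr at 30° C., then were stopped with KF buffer (pH 8.0) containing SA-XL665 for HTRF read-out. EC50 was fitted by sigmoidal dose-response to percent change in ratio.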

T1 sequence (P56817 22-454): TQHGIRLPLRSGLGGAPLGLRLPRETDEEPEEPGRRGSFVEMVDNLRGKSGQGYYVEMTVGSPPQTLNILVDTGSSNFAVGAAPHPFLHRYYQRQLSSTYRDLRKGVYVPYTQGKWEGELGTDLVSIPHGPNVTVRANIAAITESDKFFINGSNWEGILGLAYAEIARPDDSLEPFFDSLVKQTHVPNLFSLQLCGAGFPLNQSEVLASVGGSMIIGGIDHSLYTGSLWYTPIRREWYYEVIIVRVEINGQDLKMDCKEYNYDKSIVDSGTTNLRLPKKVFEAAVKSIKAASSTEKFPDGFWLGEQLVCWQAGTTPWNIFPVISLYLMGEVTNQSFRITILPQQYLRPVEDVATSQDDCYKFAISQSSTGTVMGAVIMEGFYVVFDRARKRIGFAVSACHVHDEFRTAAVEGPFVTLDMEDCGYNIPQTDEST

CN(C)C(=O)N1CCC([C@H]2C(=O)N(C)C(=N)N[C@]2(C)c2cc(-c3cccc(C#N)c3)cs2)CC1
Ki (read-out: BACE-1 Ki): < 5 µM

CN(c1cccc(CN2C(=N)NC(c3ccccc3)(c3ccccc3)C2=O)c1)S(C)(=O)=O
Ki (read-out: BACE-1 Ki): < 5 µM

COc1ccc(C=O)c(-c2cccc(C3(C)NC(=N)N(CC4CCN(C(C)=O)CC4)C3=O)c2)c1 (stereo not shown)
Ki: < 5 µM

CN1C(=N)N[C@](C)(c2cc(-c3cccc(C#N)c3)c(C3=CCN(c4ccccc4)CC3)s2)CC1=O
Ki (read-out: BACE-1 Ki): < 5 µM

CSc1cccc(-c2cccc([C@@]3(C4CC4)NC(=N)N(C)C3=O)c2)c1
Ki (read-out: BACE-1 Ki): < 5 µM

CN1C(=N)NC(c2cccc(Br)c2)(C2CCCC2)C1=O (stereo not shown) [5-(3-BROMOPHENYL)-5-CYCLOPENTYL-2-IMINO-3-METHYL-4-IMIDAZOLIDINONE]
Ki (read-out: BACE-1 Ki): < 5 µM

CS(=O)(=O)Nc1cccc(CN2C(=N)NC(c3ccccc3)(c3ccccc3)C2=O)c1
Ki (read-out: BACE-1 Ki): < 5 µM

Cc1ccc(-c2csc([C@]3(C)CC(=O)N(C)C(=N)N3)c2)cc1C#N
Ki (read-out: BACE-1 Ki): < 5 µM

CC(C)S(=O)(=O)Nc1ccc(CN2C(=N)NC(c3ccccc3)(c3ccccc3)C2=O)cc1 [2-propanesulfonamide, N-[4-[(2-imino-5-oxo-4,4-diphenyl-1-imidazolidinyl)methyl]phenyl]-]
Ki (read-out: BACE-1 Ki): < 5 µM

COc1ccc(S(=O)(=O)N2CCC(CN3C(=N)NC(c4ccccc4)(c4ccccc4)C3=O)CC2)cc1 [piperidine, 4-[(2-imino-5-oxo-4,4-diphenyl-1-imidazolidinyl)methyl]-1-[(4-methoxyphenyl)sulfonyl]-]
Ki (read-out: BACE-1 Ki): < 5 µM

CN1C(=N)NC(C)(c2cccc(-c3cc(Cl)ccc3CNC(=O)c3ccncc3)c2)C1=O (stereo not shown)
Ki (read-out: BACE-1 Ki): < 5 µM

CN1C(=N)N[C@](C)(c2ccc(F)cc2F)CC1=O
Ki (read-out: BACE-1 Ki): < 5 µM

CC(=O)N1CCC[C@H](CN2C(=N)NC(c3ccccc3)(c3ccccc3)C2=O)C1
Ki (read-out: BACE-1 Ki): < 5 µM

CN1C(=N)N[C@](C)(c2ccnc(-c3cccnc3F)c2)CC1=O
Ki (read-out: BACE-1 Ki): < 5 µM

CC(C)Oc1cccc(-c2csc([C@]3(C)CC(=O)N(C)C(=N)N3)c2)c1
Ki (read-out: BACE-1 Ki): < 5 µM

CC(=O)N1CCC(CN2C(=N)N[C@@](c3cccc(-c4cncc(Br)c4)c3)(C3CC3)C2=O)CC1
Ki (read-out: BACE-1 Ki): < 5 µM

CCC[C@H]1C(=O)N(C)C(=N)N[C@]1(C)c1cccc(I)c1
Ki (read-out: BACE-1 Ki): < 5 µM

N=C1NC(c2ccccc2)(c2ccccc2)C(=O)N1Cc1cccc(NS(=O)(=O)C2CC2)c1
Ki (read-out: BACE-1 Ki): < 5 µM

COc1cccc(-c2cc(F)cc(C3(c4ccccc4)NC(=N)N(C)C3=O)c2)c1 (racemic)
Ki (read-out: BACE-1 Ki): < 5 µM

CN1C(=N)N[C@](CCc2ccccc2)(C[C@H]2CCC[C@@H](NC3CCCCC3)C2)C1=O
Ki (read-out: BACE-1 Ki): < 5 µM

N=C1NC(c2ccccc2)(c2ccccc2)C(=O)N1CC1CCN(C(=O)CN)CC1
Ki (read-out: BACE-1 Ki): < 5 µM

CN1C(=N)NC(C)(c2ccc(C#N)s2)C(c2ccc(Cl)c(Cl)c2)C1=O (stereo not shown)
Ki (read-out: BACE-1 Ki): < 5 µM

CN1C(=N)N[C@](C)(c2cc(-c3cncnc3)cs2)CC1=O
Ki (read-out: BACE-1 Ki): < 5 µM

CN1C(=N)N[C@@](c2cccc(-c3cccc(CO)c3)c2)(C2CC2)C1=O
Ki (read-out: BACE-1 Ki): < 5 µM

N=C1NC(c2ccccc2)(c2ccccc2)C(=O)N1C[C@H]1CCCN(S(=O)(=O)C2CC2)C1
Ki (read-out: BACE-1 Ki): < 5 µM

N=C1NC(c2ccccc2)(c2ccccc2)C(=O)N1CC1CCN(S(=O)(=O)c2ccc(F)c(Cl)c2)CC1 [piperidine, 1-[(3-chloro-4-fluorophenyl)sulfonyl]-4-[(2-imino-5-oxo-4,4-diphenyl-1-imidazolidinyl)methyl]-]
Ki (read-out: BACE-1 Ki): < 5 µM

CN1C(=N)NC(c2ccccc2)(c2cc(-c3cncnc3)cs2)C1=O (stereo not shown)
Ki (read-out: BACE-1 Ki): < 5 µM

CN1C(=N)N[C@@](c2cccc(-c3ccc(F)c(C#N)c3)c2)(C2CC2)C1=O
Ki (read-out: BACE-1 Ki): < 5 µM

CN1C(=N)N[C@](C)(c2ncc(-c3cccc(Cl)c3)s2)CC1=O
Ki (read-out: BACE-1 Ki): < 5 µM

CC(C)(C)CC(=O)Nc1cccc(CN2C(=N)NC(c3ccccc3)(c3ccccc3)C2=O)c1
Ki (read-out: BACE-1 Ki): < 5 µM

CN1C(=N)N[C@](C)(c2cc(-c3cccc(Br)c3)nn2C)C(C)(C)C1=O
Ki (read-out: BACE-1 Ki): < 5 µM

CCCN(CCC)C(=O)c1cccc(CN2C(=N)NC(C)(c3cccc(Br)c3)C2=O)c1 (racemic)
Ki (read-out: BACE-1 Ki): < 5 µM

CN1C(=N)N[C@](CCC2CCCCC2)(C[C@H]2CCC[C@H](N[C@H]3CCNC3=O)C2)C1=O
Ki (read-out: BACE-1 Ki): < 5 µM

CN1OCC(C)(c2cccc(-c3cccc(C#N)c3)c2)NC1=N (stereo not shown)
Ki (read-out: BACE-1 Ki): < 5 µM

Cc1c(-c2cccc(C#N)c2)csc1[C@]1(C)CC(=O)N(C)C(=N)N1
Ki (read-out: BACE-1 Ki): < 5 µM

CN1C(=N)NC(C)(c2cccc(-c3cncc(F)c3)c2)C1=O (stereo not shown)
Ki (read-out: BACE-1 Ki): < 5 µM

N=C1NC(c2ccccc2)(c2ccccc2)C(=O)N1Cc1cccc(NC(=O)Cc2cccs2)c1
Ki (read-out: BACE-1 Ki): < 5 µM

CN1C(=N)N[C@](C)(c2cc(-c3cc(Cl)cc(C#N)c3)cs2)[C@H](C2CC2)C1=O
Ki (read-out: BACE-1 Ki): < 5 µM

C[C@H]1C(=O)N(C)C(=N)N[C@]1(C)c1cc2ccccc2s1
Ki (read-out: BACE-1 Ki): < 5 µM

CCCCS(=O)(=O)Nc1ccc(CN2C(=N)NC(c3ccccc3)(c3ccccc3)C2=O)cc1 [1-butanesulfonamide, N-[4-[(2-imino-5-oxo-4,4-diphenyl-1-imidazolidinyl)methyl]phenyl]-]
Ki (read-out: BACE-1 Ki): < 5 µM

CN1C(=N)N[C@](C)(c2cccc(N3CCCCC3)c2)CC1=O
Ki (read-out: BACE-1 Ki): < 5 µM

N=C1NC(c2cccc(-c3cccc(Cl)c3)c2)(C2CC2)C(=O)N1C(CO)CO (stereo not shown) [4-imidazolidinone, 5-(3′-chloro[1,1′-biphenyl]-3-yl)-5-cyclopropyl-3-[2-hydroxy-1-(hydroxymethyl)ethyl]-2-imino-]
Ki (read-out: BACE-1 Ki): < 5 µM

CC(C)[C@H](CO)N1C(=N)NC(c2cccc(-c3cccc(Cl)c3)c2)(C2CC2)C1=O (stereo partly drawn) [4-imidazolidinone, 5-(3′-chloro[1,1′-biphenyl]-3-yl)-5-cyclopropyl-3-[(1R)-1-(hydroxymethyl)-2-methylpropyl]-2-imino-]
Ki (read-out: BACE-1 Ki): < 5 µM

N=C1NC(c2ccccc2)(c2ccccc2)C(=O)N1CC1CCN(C(=O)C2(c3ccccc3)CC2)CC1
Ki (read-out: BACE-1 Ki): < 5 µM

CN1C(=N)N[C@](C)(c2cc(-c3cncc(Cl)n3)cs2)CC1=O
Ki (read-out: BACE-1 Ki): < 5 µM

CN1C(=N)N[C@](CCC2CCCCC2)(C[C@H]2CCC[C@H](N3CC[C@H](O)C3)C2)C1=O
Ki (read-out: BACE-1 Ki): < 5 µM

CN1C(=N)N[C@](C)(c2cc(-c3ccc(F)c(C#N)c3)cs2)[C@H](C2CCC2)C1=O
Ki (read-out: BACE-1 Ki): < 5 µM

N=C1NC(c2ccccc2)(c2ccccc2)C(=O)N1CC1CCOCC1
Ki (read-out: BACE-1 Ki): < 5 µM

CN1C(=N)N[C@](C)(c2scc(C#N)c2F)CC1=O
Ki (read-out: BACE-1 Ki): < 5 µM

Cc1csc(-c2csc(C3(C4CC4)NC(=N)N(C)C3=O)c2)c1 (stereo not shown)
Ki (read-out: BACE-1 Ki): < 5 µM

CN1C(=N)N[C@](C)(c2cc(-c3cc(Br)cc(C#N)c3)cs2)CC1=O
Ki (read-out: BACE-1 Ki): < 5 µM

COc1cccc(-c2cccc(C3(C)CON(C)C(=N)N3)c2)c1 (stereo not shown)
Ki (read-out: BACE-1 Ki): < 5 µM

CN1CCC(CN2C(=N)NC(C)(c3cccc(-c4cccc(Cl)c4)c3)C2=O)C1 (stereo not shown)
Ki (read-out: BACE-1 Ki): < 5 µM

C[C@@]1(c2ccc3sccc3c2)CC(=O)N(CCO)C(=N)N1
Ki (read-out: BACE-1 Ki): < 5 µM

N=C1NC(c2ccccc2)(c2ccccc2)C(=O)N1Cc1ccoc1
Ki (read-out: BACE-1 Ki): < 5 µM

Cc1cc(-c2cccc(C3(C4CC4)NC(=N)N(C)C3=O)c2)ccn1 (stereo not shown)
Ki (read-out: BACE-1 Ki): < 5 µM

CCc1cccc(-n2cc([C@]3(C)CC(=O)N(C)C(=N)N3)cn2)c1
Ki (read-out: BACE-1 Ki): < 5 µM

CN1C(=N)N[C@](C)(c2cc(Br)c(-c3cncc(C#N)c3)s2)CC1=O
Ki (read-out: BACE-1 Ki): < 5 µM

CN1C(=N)N[C@](C)(c2cc(-c3cccc(C#N)c3)nn2C)CC1=O
Ki (read-out: BACE-1 Ki): < 5 µM

CN1C(=N)N[C@](C)(c2cnn(-c3cccc(I)c3)c2)CC1=O
Ki (read-out: BACE-1 Ki): < 5 µM

CN1C(=N)N[C@](C)(c2cc(-c3cc(Cl)cc(C#N)c3)cs2)CC1=O
Ki (read-out: BACE-1 Ki): < 5 µM

N=C1NC(c2cccc(-c3cccc(Cl)c3)c2)(C2CC2)C(=O)N1C1CCCC1 (stereo not shown) [4-imidazolidinone, 5-(3′-chloro[1,1′-biphenyl]-3-yl)-3-cyclopentyl-5-cyclopropyl-2-imino-]
Ki (read-out: BACE-1 Ki): < 5 µM

CN1C(=N)NC(C)(c2ccc(F)c(-c3cccnc3)c2)C1=O (racemic)
Ki (read-out: BACE-1 Ki): < 5 µM

N=C1NC(c2ccccc2)(c2ccccc2)C(=O)N1Cc1cccc(NC(=O)CC2CCCC2)c1
Ki (read-out: BACE-1 Ki): < 5 µM

CN1C(=N)N[C@@](C[C@H]2CCC[C@@H](Nc3ccc4ccccc4n3)C2)(C2CC2)C1=O
Ki (read-out: BACE-1 Ki): < 5 µM

C[C@H]1C(=O)N(C)C(=N)N[C@]1(C)c1cc(-c2cc(Cl)cc(C#N)c2)cs1
Ki (read-out: BACE-1 Ki): < 5 µM

CN1OCC(C)(c2cccc(-c3cccc(Cl)c3)c2)NC1=N (stereo not shown)
Ki (read-out: BACE-1 Ki): < 5 µM

CN1C(=N)NC(C)(c2cc(-c3cccc(C#N)c3)cs2)C(CC=Cc2cccc(F)c2)C1=O (stereo not shown)
Ki (read-out: BACE-1 Ki): < 5 µM

CN1C(=N)NC(c2ccccc2)(c2cccc(NC(=O)CC3CC3)c2)C1=O (racemic)
Ki (read-out: BACE-1 Ki): < 5 µM

CN1C(=N)N[C@](C)(C[C@H]2CCC[C@@H](Nc3ccc4ccccc4n3)C2)C1=O
Ki (read-out: BACE-1 Ki): < 5 µM

CN1C(=N)N[C@](C)(c2cccc(N3CCCC3)c2)CC1=O
Ki (read-out: BACE-1 Ki): < 5 µM

Cn1nccc1CN1C(=N)NC(c2ccccc2)(c2ccccc2)C1=O
Ki (read-out: BACE-1 Ki): < 5 µM

Cc1cccc(-c2cccc(C3(C4CC4)NC(=N)N(C)C3=O)c2)n1 (stereo not shown)
Ki (read-out: BACE-1 Ki): < 5 µM

CN1C(=N)N[C@](C)(c2ccc3c(c2)c(-c2cccs2)cn3C)CC1=O
Ki (read-out: BACE-1 Ki): < 5 µM

CN1C(=N)NC(c2cccc(-c3cncc(Br)c3)c2)(C2(C)CC2)C1=O (stereo not shown)
Ki (read-out: BACE-1 Ki): < 5 µM

Cc1ccc(N2CCC([C@H]3C(=O)N(C)C(=N)N[C@]3(C)c3cc(-c4cccc(C#N)c4)cs3)CC2)cc1
Ki (read-out: BACE-1 Ki): < 5 µM

CN1C(=N)N[C@](C)(c2ccc3scc(-c4ccc(C#N)s4)c3c2)CC1=O
Ki (read-out: BACE-1 Ki): < 5 µM

CC1(c2cccc(-c3cccnc3)c2)NC(=N)N(Cc2cccc(N3CCCCS3(=O)=O)c2)C1=O (racemic)
Ki (read-out: BACE-1 Ki): < 5 µM

COc1ccccc1C(=O)N[C@@H]1CCC[C@H](C[C@@]2(CCC3CCCCC3)NC(=N)N(C)C2=O)C1
Ki (read-out: BACE-1 Ki): < 5 µM

CN1OCC(C)(c2cc(-c3ccc(F)c(C#N)c3)cs2)NC1=N (stereo not shown)
Ki (read-out: BACE-1 Ki): < 5 µM

N=C1NC(c2cccc(-c3cccc(Cl)c3)c2)(C2CC2)C(=O)N1C1CCC1 (stereo not shown) [4-imidazolidinone, 5-(3′-chloro[1,1′-biphenyl]-3-yl)-3-cyclobutyl-5-cyclopropyl-2-imino-]
Ki (read-out: BACE-1 Ki): < 5 µM

CC1(c2cccc(-c3cccc(Cl)c3)c2)NC(=N)N(CC2CCN(S(=O)(=O)c3ccccc3)C2)C1=O (stereo not shown)
Ki (read-out: BACE-1 Ki): < 5 µM
